Our source for the IC50 values is patent US20240101570A1 (AMGEN INC., priority 2020, published 2024).

Test [1] has as its system HCT116 MTAP null cells. Nature of the test: HCT116 MTAP null cell proliferation / viability (CellTiter-Glo, 6 days). Type of test: cell-based. As to conditions: HCT116-MTAP null, 144 h, HCT116 MTAP null cells, 6 days, CellTiter-Glo; read-out: HCT-116 MTAP null IC50. An outline of the steps: (§1)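 CellTiter-Glo luminescence, 6-day exposure, RPMI 1640 + 10% FBS. Dosing: 1:3 series (8-9 pts, top 1 or 10 μM) or 1:2 series (22 pts, top 10 or 50 μM), DMSO control. IC50 = 50% of control via curve fit.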
Background: In ATP-based viability assays light output follows the ATP content of the culture.

Test [2] relates to HCT116 WT cells. Put plainly: HCT116 WT cell proliferation / viability (CellTiter-Glo, 6 days). Type of test: cell-based. As to conditions: Homo sapiens, HCT-116, 144 h, HCT116 WT cells, 6 days, CellTiter-Glo; read-out: HCT-116 WT IC50. The gist of the method:
as §1

pIC50: −log10 of the molar value.

As for `CC1OCc2c1c(N)nc1ccc(C(=O)N(Cc3ccc(C(F)(F)F)cn3)CC3CCOCC3)cc21` (centres unmarked) [Example 895, 4-amino-3-methyl-N-((tetrahydro-2H-pyran-4-yl)methyl)-N-((5-(trifluoromethyl)pyridin-2-yl)methyl)-1,3-dihydrofuro[3,4-c]quinoline-8-carboxamide], the pIC50 in test [1] was 7.29; in test [2] it was 6.26.
Take `CC1OCc2c1c(N)nc1ccc(C(=O)N(Cc3ccc(C(F)(F)F)cn3)CC3(C#N)CC3)cc21` (centres unmarked) [Example 917, 4-amino-N-((1-cyanocyclopropyl)methyl)-3-methyl-N-((5-(trifluoromethyl)pyridin-2-yl)methyl)-1,3-dihydrofuro[3,4-c]quinoline-8-carboxamide]: the negative logarithm of the IC50 (pIC50) in test [1] is 7.77; in test [2] it was 5.81.
Consider `C[C@H](c1ncccn1)N(Cc1ccc(Br)cn1)C(=O)c1ccc2nc(N)c3c(c2c1)COC3` [Example 658, 4-amino-N-((5-bromo-2-pyridinyl)methyl)-N-((1R)-1-(2-pyrimidinyl)ethyl)-1,3-dihydrofuro[3,4-c]quinoline-8-carboxamide], for which the negative-log IC50 (pIC50) in test [1] is 8.22; in test [2], 7.15.
Regarding `CC(C)N(Cc1ccc(C(F)(F)F)cn1)C(=O)c1cc2c3c(c(N)nc2cn1)[C@@H](C)OC3` [Example 310, (3R)-4-amino-3-methyl-N-(2-propanyl)-N-((5-(trifluoromethyl)-2-pyridinyl)methyl)-1,3-dihydrofuro[3,4-c][1,7]naphthyridine-8-carboxamide], the pIC50 in test [1] is 7.15; in test [2], 5.39.
The corresponding values for `Cc1cc2nc(N)c3c(c2cc1C(=O)N(C)Cc1ccc(C(F)(F)F)cn1)COC3` [Example 503, 4-amino-N,7-dimethyl-N-((5-(trifluoromethyl)-2-pyridinyl)methyl)-1,3-dihydrofuro[3,4-c]quinoline-8-carboxamide] are 7.25 and 5.70.
As to `CN(Cc1ccc(C#N)cn1)C(=O)c1cc2c3c(c(N)nc2cc1F)COC3` [Example 479, 4-amino-N-((5-cyano-2-pyridinyl)methyl)-7-fluoro-N-methyl-1,3-dihydrofuro[3,4-c]quinoline-8-carboxamide], the pIC50 in test [1] was 6.48; in test [2], 4.77.
The corresponding values for `COC[C@@H](C)N(Cc1ccc(C(F)(F)F)cn1)C(=O)c1cnc2nc(N)c3c(c2c1)COC3` [Example 322, 4-amino-N-((2R)-1-methoxy-2-propanyl)-N-((5-(trifluoromethyl)-2-pyridinyl)methyl)-1,3-dihydrofuro[3,4-c][1,8]naphthyridine-8-carboxamide] are 7.09 and 5.99.
The corresponding values for `CC(C)N(Cc1cnc(C(F)(F)F)cn1)C(=O)c1cc2c3c(c(N)nc2cc1Cl)COC3` [Example 499, 4-amino-7-chloro-N-(2-propanyl)-N-((5-(trifluoromethyl)-2-pyrazinyl)methyl)-1,3-dihydrofuro[3,4-c]quinoline-8-carboxamide] are 6.79 and 5.38.
The corresponding values for `C[C@H](c1ncccn1)N(Cc1ccc(C(F)(F)F)cn1)C(=O)c1cc2c3c(c(N)nc2cc1Cl)COC3` [Example 655, 4-amino-7-chloro-N-((1R)-1-(2-pyrimidinyl)ethyl)-N-((5-(trifluoromethyl)-2-pyridinyl)methyl)-1,3-dihydrofuro[3,4-c]quinoline-8-carboxamide] are 7.80 and 6.53.
As to `CC(c1ccc(C(F)(F)F)cn1)N(C)C(=O)c1ccc2nc(N)c3c(c2c1)COC3` (racemic) [Example 697, 4-amino-N-methyl-N-((1R)-1-(5-(trifluoromethyl)-2-pyridinyl)ethyl)-1,3-dihydrofuro[3,4-c]quinoline-8-carboxamide and 4-amino-N-methyl-N-((1S)-1-(5-(trifluoromethyl)-2-pyridinyl)ethyl)-1,3-dihydrofuro[3,4-c]quinoline-8-carboxamide], the values for the pIC50 in test [1] and in test [2] were 6.92 and 5.35, respectively.

What is called pIC50 is −log10 of the IC50, conventionally taken in molar units.
